EP1339694B1 (F. HOFFMANN-LA ROCHE AG, priority 2000, dated 2002)

Each molecule was assayed against T1, Human Platelet IP Receptor (Homo sapiens, UniProt P43119) (assay: In vitro Human Platelet IP Receptor Radioligand Binding Assay). Conditions: not given.
T1 construct: 250 ml Platelet Rich Plasma was transferred into 250 ml centrifuge tubes and spun at 6000 g; from tissue; host or cells: membranes prepared from platelets (platelet rich plasma)
T1 sequence (P43119 whole entry): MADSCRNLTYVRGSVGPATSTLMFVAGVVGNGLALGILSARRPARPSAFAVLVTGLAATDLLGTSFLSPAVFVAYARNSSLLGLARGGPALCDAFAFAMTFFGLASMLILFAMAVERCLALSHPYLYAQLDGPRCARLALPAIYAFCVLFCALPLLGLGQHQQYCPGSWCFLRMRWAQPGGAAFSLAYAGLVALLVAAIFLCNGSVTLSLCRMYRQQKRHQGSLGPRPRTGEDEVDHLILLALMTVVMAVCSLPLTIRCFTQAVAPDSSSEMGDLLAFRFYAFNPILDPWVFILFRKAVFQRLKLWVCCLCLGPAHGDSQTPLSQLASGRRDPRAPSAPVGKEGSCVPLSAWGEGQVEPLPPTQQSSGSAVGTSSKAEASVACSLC
Method: In vitro Human Platelet IP Receptor Radioligand Binding Assay
The in vitro Human Platelet IP Receptor Binding Assay measures the strength of a potential drug's binding affinity to its intended target.
The following buffers were prepared using the purest available water.
250 ml Platelet Rich Plasma was transferred into 250 ml centrifuge tubes and spun at 6000 g for 10 min at 20 °C. Pellets were then resuspended in IP lysis buffer and homogenized using a polytron(setting 7, 1x20 sec. burst), brought up to a final volume of 180 ml and centrifuged at 40000 g for 15 min at 4 °C. The pellets were then resuspended in IP assay buffer, protein density determined by BCA method (Pierce) and stored in 2.0 ml vials at -80 °C for subsequent assay use.
To obtain at least 80 % specific binding, 50 µg protein/assay tube was used in a competition experiment. The final radioligand concentration was 1 to 3E-8 M.
The membranes were thawed at room temperature and then diluted in assay buffer to the appropriate concentration. First buffer, drug, radioligand, and lastly, membranes were added to the assay tubes. […] The assay tubes were filtered onto 0.3% PEI pre-treated glass fiber filtermats (GF/ B) using Packard Top Count 96 well cell harvester. The tubes were rinsed three times with ice cold 20mM Tris-HCl, 5mM MgCl2, pH=7.4 (3 x 0.5 ml/sample). Bound radioactivity was determined using liquid scintillation counting.
In the case of `O=C(CCc1ccc(NC2=NCCN2)cc1)c1ccc(N2CCN(C(=O)c3ccco3)CC2)cc1`, the Ki is reported as 0.468 nM. For `O=C(CCc1ccc(NC2=NCCN2)cc1)c1ccc(N2CCOCC2)cc1` [Example 3, 3-[4-(4,5-Dihydro-1H-imidazol-2-ylamino)phenyl]-1-(4-morpholin-4-ylphenyl)-propan-1-one], the Ki was 5.25 nM.

Same assay, conditions: human platelet membranes, radioligand competition, 25 °C for 60 min; read-out: Affinity towards the Human Platelet IP Receptor (pKi) (converted)
For `O=C(CCc1ccc(NC2=NCCN2)cc1)c1ccc(Oc2ccccc2)cc1`, the Ki was 20 nM. `O=C(CCc1ccc(NC2=NCCN2)cc1)c1ccc(Cl)cc1Cl` [1-(2,4-dichlorophenyl)-3-[4-(4,5-dihydro-1H-imidazol-2-ylamino)phenyl]-propan-1-one] gave a Ki of 0.282 nM. With `O=C(CCc1ccc(NC2=NCCN2)cc1)c1ccc(F)cc1F` [1-(2,4-difluorophenyl)-3-[4-(4,5-dihydro-1H-imidazol-2-ylamino)phenyl]-propan-1-one] the Ki was 56.2 nM. In the case of `O=C(CCc1ccc(NC2=NCCN2)cc1)c1ccc(Cl)c(Cl)c1` [1-(3,4-dichlorophenyl)-3-[4-(4,5-dihydro-1H-imidazol-2-ylamino)phenyl]-propan-1-one], the Ki is reported as 9.55 nM. In the case of `O=C(CCc1ccc(NC2=NCCN2)cc1)c1ccc(F)c(F)c1` [1-(3,4-difluorophenyl)-3-[4-(4,5-dihydro-1H-imidazol-2-ylamino)phenyl]-propan-1-one], the Ki is reported as 22.4 nM. `O=C(CCc1ccc(NC2=NCCN2)cc1)c1cc(F)cc(F)c1` [1-(3,5-difluorophenyl)-3-[4-(4,5-dihydro-1H-imidazol-2-ylamino)phenyl]-propan-1-one] showed a Ki of 0.741 nM. `O=C(CCc1ccc(NC2=NCCN2)cc1)c1cc(F)c(Cl)cc1Cl` [1-(4,6-dichloro-3-fluorophenyl)-3-[4-(4,5-dihydro-1H-imidazol-2-ylamino)-phenyl]propan-1-one] gave a Ki of 0.708 nM. `O=C(CCc1ccc(NC2=NCCN2)cc1)c1ccc(Cl)cc1` [1-(4-chlorophenyl)-3-[4-(4,5-dihydro-1H-imidazol-2-ylamino)phenyl]-propan-1-one] was tested, and the Ki was 0.398 nM. `CC(=O)N1CCN(c2ccc(C(=O)CCc3ccc(NC4=NCCN4)cc3)cc2)CC1` [1-[4-(4-acetylpiperazin-1-yl)phenyl]-3-[4-(4,5-dihydro-1H-imidazol-2-ylamino)-phenyl]propan-1-one] showed a Ki of 6.31 nM. `O=C(CCc1ccc(NC2=NCCN2)cc1)c1ccc(Cl)c(Cl)c1Cl` [3-[4-(4,5-dihydro-1H-imidazol-2-ylamino)phenyl]-1-(2,3,4-trichlorophenyl)-propan-1-one] was tested, and the Ki was 1.74 nM. With `COc1ccc(C(=O)CCc2ccc(NC3=NCCN3)cc2)c(F)c1` [3-[4-(4,5-dihydro-1H-imidazol-2-ylamino)phenyl]-1-(2-fluoro-4-methoxy-phenyl)-propan-1-one] the Ki was 1 nM. `O=C(CCc1ccc(NC2=NCCN2)cc1)c1ccccc1F` [3-[4-(4,5-dihydro-1H-imidazol-2-ylamino)phenyl]-1-(2-fluorophenyl)propan-1-one] gave a Ki of 0.447 nM. `O=C(CCc1ccc(NC2=NCCN2)cc1)c1cccc(F)c1` [3-[4-(4,5-dihydro-1H-imidazol-2-ylamino)phenyl]-1-(3-fluorophenyl)propan-1-one] gave a Ki of 0.676 nM. Molecule `O=C(CCc1ccc(NC2=NCCN2)cc1)c1ccc(OCc2ccccc2)cc1` [3-[4-(4,5-dihydro-1H-imidazol-2-ylamino)phenyl]-1-(4-benzyloxyphenyl)-propan-1-one] has a Ki of 11.2 nM. `CC(C)Oc1ccc(C(=O)CCc2ccc(NC3=NCCN3)cc2)cc1` [3-[4-(4,5-dihydro-1H-imidazol-2-ylamino)phenyl]-1-(4-isopropoxyphenyl)-propan-1-one] was tested, and the Ki was 0.437 nM. With `O=C(CCc1ccc(NC2=NCCN2)cc1)c1ccc(-c2ccccc2)cc1` [3-[4-(4,5-dihydro-1H-imidazol-2-ylamino)phenyl]-1-(4-phenylphenyl)-propan-1-one] the Ki was 1.48 nM. Work on `COc1ccc2cc(C(=O)CCc3ccc(NC4=NCCN4)cc3)ccc2c1` [3-[4-(4,5-dihydro-1H-imidazol-2-ylamino)phenyl]-1-(6-methoxynaphthalen-2-yl)-propan-1-one] yielded a Ki of 0.427 nM. Molecule `O=C(CCc1ccc(NC2=NCCN2)cc1)c1cccc2ccccc12` [3-[4-(4,5-dihydro-1H-imidazol-2-ylamino)phenyl]-1-(naphthalen-1-yl)-propan-1-one] has a Ki of 1.02 nM. With `O=C(CCc1ccc(NC2=NCCN2)cc1)c1ccc2ccccc2c1` [3-[4-(4,5-dihydro-1H-imidazol-2-ylamino)phenyl]-1-(naphthalen-2-yl)propan-1-one] the Ki was 4.9 nM. Work on `O=C(CCc1ccc(NC2=NCCN2)cc1)c1ccccc1` [3-[4-(4,5-dihydro-1H-imidazol-2-ylamino)phenyl]-1-(phenyl)propan-1-one] yielded a Ki of 3.16 nM. `CCOC(=O)N1CCN(c2ccc(C(=O)CCc3ccc(NC4=NCCN4)cc3)c(F)c2)CC1` [3-[4-(4,5-dihydro-1H-imidazol-2-ylamino)phenyl]-1-[4-(4-ethoxycarbonyl-piperazin-1-yl)-2-fluorophenyl]propan-1-one] was tested, and the Ki was 67.6 nM. For `CCNC(=O)N1CCN(c2ccc(C(=O)CCc3ccc(NC4=NCCN4)cc3)cc2)CC1` [3-[4-(4,5-dihydro-1H-imidazol-2-ylamino)phenyl]-1-[4-(4-ethylamino-carbonyl-piperazin-1-yl)phenyl]propan-1-one], the Ki was 38.9 nM. `CN1CCN(c2ccc(C(=O)CCc3ccc(NC4=NCCN4)cc3)cc2)CC1` [3-[4-(4,5-dihydro-1H-imidazol-2-ylamino)phenyl]-1-[4-(4-methylpiperazin-1-yl)-phenyl]propan-1-one] was tested, and the Ki was 7.08 nM. For `CCCOC(=O)N1CCN(c2ccc(C(=O)CCc3ccc(NC4=NCCN4)cc3)cc2)CC1` [3-[4-(4,5-dihydro-1H-imidazol-2-ylamino)phenyl]-1-[4-(4-propoxycarbonyl-piperazin-1-yl)phenyl]propan-1-one], the Ki was 58.9 nM. Work on `O=C(CCc1ccc(NC2=NCCN2)cc1)c1ccc(F)cc1` [Example 1, 3-[4-(4,5-Dihydro-1H-imidazol-2-ylamino)phenyl]-1-(4-fluorophenyl)propan-1-one] yielded a Ki of 0.316 nM. `O=C(CCc1ccc(NC2=NCCN2)cc1)c1ccc(N2CCOCC2)cc1F` [Example 4, 3-[4-(4,5-Dihydro-1H-imidazol-2-ylamino)phenyl]-1-(2-fluoro-4-morpholin-4-yl-phenyl)propan-1-one] showed a Ki of 18.2 nM. Work on `CCOC(=O)N1CCN(c2ccc(C(=O)CCc3ccc(NC4=NCCN4)cc3)cc2)CC1` [Example 5, 3-[4-(4,5-Dihydro-1H-imidazol-2-ylamino)phenyl]-1-[4-(4-ethoxycarbonyl-piperazin-1-yl)-phenyl]propan-1-one] yielded a Ki of 9.33 nM. With `CS(=O)(=O)N1CCN(c2ccc(C(=O)CCc3ccc(NC4=NCCN4)cc3)cc2)CC1` [Example 6, 3-[4-(4,5-Dihydro-1H-imidazol-2-ylamino)phenyl]-1-[4-(4-methanesulfonyl-piperazin-1-yl)phenyl]propan-1-one] the Ki was 28.2 nM. Work on `O=C(CCCc1ccc(NC2=NCCN2)cc1)c1ccc(F)cc1` [Example 8, 4-[4-(4,5-Dihydro-1H-imidazol-2-ylamino)phenyl]-1-(4-fluorophenyl)butan-1-one] yielded a Ki of 3.09 nM. For `O=C(COc1ccc(NC2=NCCN2)cc1)c1ccc2c(c1)OCCO2` [Example 9, 1-(2,3-Dihydrobenzo[1,4]dioxin-6-yl)-2-[4-(4,5-dihydro-1H-imidazol-2-ylamino)-phenoxy] ethanone], the Ki was 44.7 nM. Work on `COc1ccc(C(=O)COc2ccc(NC3=NCCN3)cc2)cc1` [Example 10, 2-[4-(4,5-Dihydro-1H-imidazol-2-ylamino)phenoxy]-1-(4-methoxyphenyl)ethanone] yielded a Ki of 2.75 nM.
